From patent publication US11400104B2, “Skeletal removal of bisphosphonates” (The Regents of the University of California, priority 2016, dated 2022)
“Also recorded” adds a separate entry of the source.

Experiments:
[1] = hydroxyapatite (HAP) binding affinity, relative retention times normalized to RIS; details: FIG. 7
Experimental: FIG. 7 is a bar graph showing hydroxyapatite (HAP) binding affinity of Zoledronate (ZOL), ROX-RIS, 5-FAM-ZOL, and AF647-ZOL. Relative retention times were normalized to RIS.
Hydroxyapatite assays indicate that the FL-BPs generally retain substantial affinity for bone mineral that reflect the affinity of the BP component and to a lesser extent, the affinity of the conjugated fluorophore. Hydroxyapatite (Macro-Prep® Ceramic hydroxyapatite Type II […]) was obtained from Bio-Rad Laboratories, Inc. Hercules, Calif. Accurately weighed hydroxyapatite powder (1.4-1.6 mg) was suspended in a 4 mL clear vial containing the appropriate volume of assay buffer (0.05% (wt/vol) Tween20, 10 μM EDTA and 100 mM HEPES pH=7.4) for 3 hours. Hydroxyapatite was then incubated with increasing amounts of FAM-BP and ROX-BP (0, 25, 50, 100, 200, and 300 μM). Samples were gently shaken for 3 hours at 37° C. in appropriate volume of assay buffer (0.05% (wt/vol) Tween20, 10 μM EDTA and 100 mM HEPES pH=7.4). Subsequent to the equilibrium period, the vials were centrifuged at 10,000 rpm for 5 minutes to separate the solids and the supernatant. 0.3 mL of the supernatant was collected and the equilibrium solution concentration is measured by using Shimadzu UV-VIS spectrometer. For the calibration series, FL-BP probe standards were prepared by serial dilution from the stock solution with the same isotherm buffer to give the range from 0 to 400 μM. Calibration curves were constructed using standard solutions of the target FL-BPs. Fluorescent emission can also be used to calculate the binding parameters. Nonspecific binding was measured with a similar procedure in the absence of hydroxyapatite as control. Binding parameters (Kd and Bmax, represent the equilibrium dissociate constant and maximum number of binding sites, respectively) were calculated using the PRISM program (Graphpad, USA). The binding parameters of each compound was measured in 5 independent experiments. […]

[2] = test system: mouse maxilla; test: preliminary study: fluorescent imaging of mouse maxilla after 5-FAM-ZOL IV or ROX-RIS intraoral injection; type: in vivo; details: single IV 200 μl of 350 μM; 3 weeks after
Experimental: In a preliminary study female C57B16/J (B6) mice (8 weeks old) received either a single IV injection via tail vein of 200 μl of 350 μM 5-FAM-ZOL (5-FAM-ZOL, #BV111001, BioVinc LLC, Culver City, Calif.) or a single intraoral injection of 25 μl of 50 μM ROX-RIS (5(6)-ROX-RIS, #BV150101, BioVinc LLC, CA) to gingival/palatal tissue at maxillary left first molar (white arrow in FIG. 11). […], mice were euthanized 3 weeks after the IV injection of 5-FAM-ZOL or 2 days after the intraoral injection of ROX-RIS. Skulls (containing maxilla) were harvested and standardized fluorescent biophotonics image was obtained using an excitation wavelength of 460 nm and the 515 nm filter (LAS3000, FUJIFILM Corp).

[3] = test system: mouse cranial bone; test: cranial bone displacement: AF647-ZOL pre-adsorbed via IV, FAM-ZOL sub-periosteal injection; type: in vivo; details: for signal of pre-adsorbed AF647-ZOL at the FAM-ZOL injection site: AF647-ZOL 100 μl of 50 μM IV 6 days before, increasing dose of FAM-ZOL; for FAM signal on the cranial bone at the injection site: sub-periosteal 10 μl of 0, 1, 10 or 50 μM
Experimental: FIG. 12A to FIG. 12C show the displacement and replacement of AF647-ZOL and 5-FAM-ZOL. FIG. 12A are fluorescent images of cranial bone. AF647-ZOL (50 μM) was pre-adsorbed on cranial bone via IV injection. 5-FAM-ZOL at the indicated doses was directly injected to the sub-periosteal space. […] The first bars of each set are for AF647-ZOL and the second bars of each set are for 5-FAM-ZOL. *, P<0.05 vs Veh by Dunnett's test.
Mice were pre-treated by 100 μl of 50 μM AF647-ZOL retro-orbital IV injection. Six days later, mice received sub-periosteal injection to cranial bone with 10 μl of 0 μM, 1 μM, 10 μM, or 50 μM FAM-ZOL. The cranial bone was harvested and soft tissues were removed. The fluorescent signals of AF647 and FAM were measured by standardized fluorescent biophotonics. The cranial bones were then prepared for cryosection. Cross-sections were made by the tape method and evaluated by confocal laser scanning microscopy.

[4] = test system: femur trabecular bone; test: micro CT evaluation of pharmacological function of 5-FAM-ZOL in vitamin D deficient rats; type: in vivo; details: vitamin D deficient (VitD (−)) rats; FIG. 13
Experimental: The pharmacological function of 5-FAM-ZOL was examined in vitamin D deficient (VitD (−)) rats (n=3 in each group). […] Bars are 1.0 mm. *: p<0.05 by Student's t-test.
This study determines the anti-resorptive function of FL-BP in vivo, as compared to ZOL. Female B6 mice were injected with 50 μM ZOL (n=6), 50 μM FL-BP (n=6) or 0.9% NaCl vehicle solution (control: n=6) via tail vein. Three weeks later, mice were euthanized and femur and L4/L5 were harvested. After fixed in 10% buffered formalin, bone samples were subjected to micro CT analysis. The anti-resorptive function were quantitatively established by the trabecular bone three-dimensional morphometry (e.g., BV/TV, Tb.N, Tb.Th, TbSp). FL-BPs with minimal or no pharmacological BP function are used.

In the case of `O=C(NCC(O)C[n+]1ccn(CC(O)(P(=O)(O)O)P(=O)(O)O)c1)c1ccc(-c2c3ccc(=O)cc-3oc3cc(O)ccc23)c(C(=O)O)c1` (stereo not drawn) [5-FAM-ZOL], the “influence of the fluorophore on hydroxyapatite affinity” value [1] is reported as “small reduction”, the “fluorescent signal in maxilla and zygomatic arch” value [2] is reported as “Strong and relatively uniform green fluorescent signal” and the “signal of pre-adsorbed AF647-ZOL at the FAM-ZOL injection site” value [3] is reported as “decreased”. For the same compound, the “signal of pre-adsorbed AF647-ZOL at the FAM-ZOL injection site” value ([3]; listed as FAM-ZOL) was “gradual decrease”, the “AF647-ZOL signal on the external versus internal bone surface after FAM-ZOL injection” value ([3]; cranial bone cryo-cross sections) was “disproportionately reduced” and the “FAM signal on the cranial bone at the injection site” value [3] was “increased with increasing injection dose”. For the same compound, the “FAM signal on the cranial bone at the injection site” value ([3]; listed as FAM-ZOL) was “dose dependent increase”, the “location of FAM-ZOL signal in cranial bone” value ([3]; sub-periosteal injection, cryo-cross sections) was “primarily on the external bone surface” and the “pharmacological (anti-resorptive) function” value [4] was “exhibited pharmacological function; also recorded: effectively blocked catabolic bone remodeling”.
